Results taken from PubChem BioAssay AID504568 (NMMLSC, 2011).
Active and inactive are the calls of the source.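 How the source made its calls: active means binding readouts below 60% of the midpoint between blocked and unblocked controls, with summed weighted score above 1; inactive means the rest.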

Tested on: 2C TCR mouse CD8+ T cells, vesicle binding, flow cytometry
Test: modulators of T cell-vesicle binding via LFA-1, confirmation, powder samples, single concentration, mouse 2C TCR, flow cytometry (AID 504568);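 further: lower values mean less vesicle binding and point to an inhibitor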;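 on double-positive events (T cell-vesicle binding): the gate for binding is set so anti-LFA-1 blocked control wells show 10% double positives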
Conditions: stronger effect = lower value; for mean fluorescence percent response: measured here: CD8+ cell vesicle fluorescence mean

Row | SMILES | double-positive events (T cell-vesicle binding) | mean fluorescence percent response
1 | Cc1ccccc1C(=O)N1CCC(C(=O)Nc2ccc(C)c(S(=O)(=O)N3CCCCC3)c2)CC1 | 22.7% | 130%
2 | CN(C)S(=O)(=O)c1cccc(-n2sc3ccccc3c2=O)c1 | 17.7% | 109%
3 | COc1cccc(NC(=O)Nc2ccc3nc(C)c(C)nc3c2)c1 | 18.7% | 113%
4 | CN1CCN(S(=O)(=O)c2cccc(C(=O)Nc3cc(C(F)(F)F)ccc3N3CCCCC3)c2)CC1 | 21.7% | 105%
5 | COc1ccccc1CNC(=O)COc1ccc(C)cc1 | 24.8% (inactive) | 173%
6 | COc1ccc(C(O)c2coc3ccc(O)c(CN(C)C)c23)cc1 (centres undefined) | 21.7% (inactive) | 162%
7 | O=C(Cn1cc(C(F)(F)F)cc(Cl)c1=O)NCCc1ccc(Cl)cc1Cl | 26.4% (inactive) | 136%
8 | O=C(CCC(=O)N1CCOCC1)NCc1cccc(C(F)(F)F)c1 | 24.3% (inactive) | 133%
9 | Cc1ccc(OCCOC(=O)c2cc(S(=O)(=O)N3CCCCC3)ccc2N2CCOCC2)cc1 | 20.9% | 134%
10 | CCN(CC)S(=O)(=O)c1ccc(Cl)c(NC(=O)COC(=O)C2CCCCC2)c1 | 14.5% | 126%
11 | CCN(CC)C(=O)N1CCN(S(=O)(=O)c2ccc(C)cc2)CC1 | 26% (inactive) | 129%
12 | Cc1ncc([N+](=O)[O-])n1Cc1cccc(F)c1 | 28.5% (inactive) | 152%
13 | Cc1cc(Cl)c(OCCCSc2nc(C)cc(=O)[nH]2)c(Br)c1 | 25% | 126%
14 | Cc1cccc(NC(=O)C2CCN(S(=O)(=O)c3c(C)[nH]c(=O)[nH]c3=O)CC2)c1 | 27.4% (inactive) | 161%
15 | COc1ccc(S(=O)(=O)N2CCCC2C(=O)Nc2ccc(C(C)=O)cc2)cc1 (centres undefined) | 26.1% (inactive) | 142%
16 | O=C(NCC1CCCCC1)c1ccc(Cl)c(S(=O)(=O)N2CCOCC2)c1 | 17.8% | 136%
17 | CC(C)(C)NC(=O)COc1ccc(CNCc2cccnc2)cc1 | 25.7% (inactive) | 148%
18 | CCC(C(=O)Nc1ccccc1)c1ccccc1 (centres undefined) | 24.6% | 131%
19 | O=C(NCCC1=CCCCC1)C(=O)NCC(c1ccco1)N1CCN(c2ccccc2F)CC1 (centres undefined) | 26.1% (inactive) | 116%
20 | O=C(NCCN1CCN(c2ccccc2)CC1)c1cccc(Br)c1 | 24.2% (inactive) | 152%
21 | COCc1c(C(=O)Nc2cccc(S(=O)(=O)N3CCCCC3)c2)oc2ccccc12 | 14.8% | 104%
22 | CCCCn1nc(C(=O)N2CCN(S(=O)(=O)c3ccccc3)CC2)c2ccccc2c1=O | 28.1% (inactive) | 145%
23 | Cc1ccc(C(=O)NCCCN2CCOCC2)c(C)c1 | 24.4% | 136%

Row | SMILES | double-positive events (T cell-vesicle binding) | mean fluorescence percent response
24 | O=C(c1ccc(N2C(=O)C3CC=C(Cl)CC3C2=O)cc1)N1CCCCC1 (centres undefined) | 22.8% (inactive) | 130%
25 | Cc1ccc(N2CC(C(=O)NC3=NCCS3)CC2=O)cc1 (centres undefined) | 21.9% (inactive) | 161%
26 | CN1CCN(S(=O)(=O)c2ccc(C(=O)Nc3ccccc3)cc2)CC1 | 26.1% (inactive) | 138%
27 | COc1ccc([N+](=O)[O-])cc1NC(=O)c1ccc(N(Cc2ccccc2C)S(C)(=O)=O)cc1 | 23% | 105%
28 | COC(=O)c1ccccc1NC(=O)C1CCN(C(=O)c2cc(OC)cc(OC)c2)CC1 | 29.9% (inactive) | 172%
29 | COc1ccc(CNC(=O)c2cccnc2SC)cc1OC | 26.7% (inactive) | 163%
30 | CCOC(=O)c1c(C=O)c2ccccc2n1CC | 20.5% | 148%
31 | O=C(COC(=O)C12CC3CC(CC(Br)(C3)C1)C2)Nc1cccc(S(=O)(=O)N2CCOCC2)c1 | 13.9% | 91.1%
32 | COCCCN1CCc2[nH]c(=S)[nH]c(=O)c2C1 | 28% (inactive) | 169%
33 | O=C1CC(c2nc3ccccc3[nH]2)CN1Cc1ccccc1 (centres undefined) | 22.6% | 124%
34 | CN(C)S(=O)(=O)c1ccc(C(=O)NCCc2ccco2)cc1 | 22.8% | 122%
35 | COc1ccc(S(=O)(=O)N2CCCCC2)cc1NC(=O)c1cnc(C)cn1 | 26.7% (inactive) | 173%
36 | CCC1(C)NC(=O)N(CC(=O)N2N=C(c3ccccc3)CC2c2ccc(OC)cc2)C1=O (centres undefined) | 24% (inactive) | 144%
37 | Cc1ccccc1C(=O)NCC(=O)N1CCN(C/C=C/c2ccccc2)CC1 | 21.8% | 150%
38 | COc1ccc(NC(=O)CSCC(=O)Nc2cccc(S(=O)(=O)N3CCCCCC3)c2)cc1 | 21.7% | 136%
39 | O=C(CS(=O)(=O)Cc1ccccc1)N1CCc2ccccc21 | 25.6% (inactive) | 159%
40 | COc1ccccc1NS(=O)(=O)c1cc(NC(=O)CNC(=O)c2cc(C)cc(C)c2)ccc1C | 27.3% (inactive) | 153%
41 | CCOc1ccc(CCNC(=O)CCS(=O)(=O)c2ccc(C)cc2)cc1OCC | 23.5% | 117%
42 | O=C(NNS(=O)(=O)c1ccc2ccccc2c1)c1cccs1 | 23.5% (inactive) | 149%
43 | Cn1c(CNC(=O)CNC(=O)c2ccc(F)cc2)cc(=O)n(C)c1=O | 29.7% (inactive) | 165%
44 | Cc1cc(=O)oc2c3c(cc(OCC(=O)NCc4ccncc4)c12)OC(C)(C)CC3 | 20.8% | 128%
45 | CCOC(=O)c1ccc(S(=O)(=O)N2CCN(C3CCCC3)CC2)cc1 | 23% (inactive) | 155%
46 | CCOC(=O)c1ccc(NC(=O)CN2C(=O)NC3(CCCCCCC3)C2=O)cc1 | 27.4% | 149%

Row | SMILES | double-positive events (T cell-vesicle binding) | mean fluorescence percent response
47 | Cc1ccc(Cn2c([N+](=O)[O-])cnc2C)cc1 | 23.1% | 153%
48 | O=C(CC1=NCCNC(c2ccccc2)C1)c1ccccc1O (centres undefined) | 28% (inactive) | 170%
49 | Cc1ccc(NC(=O)COC(=O)CCc2c[nH]c3ccccc23)c(C)c1 | 25.1% | 147%
50 | COc1ccc(N2CC(C(=O)NC(C)C(=O)NCc3ccccc3OC)CC2=O)cc1 (centres undefined) | 27.3% (inactive) | 177%
51 | CCOC(=O)C1CCCN(S(=O)(=O)c2ccc(F)c(C(=O)Nc3ccc(F)c(F)c3)c2)C1 (centres undefined) | 22.4% | 162%
52 | COc1ccc(NC(=O)CC2C(=O)N(Cc3ccccc3)C(=S)N2CCN2CCOCC2)cc1 (centres undefined) | 28.8% (inactive) | 149%
53 | O=C(OCCOc1cccc(Cl)c1)c1ccc(F)c(S(=O)(=O)N2CCOCC2)c1 | 25.8% (inactive) | 163%
54 | Cc1ccc(O)c(CCc2ccccc2)n1 | 22.9% | 120%
55 | CC1CCCCC1NC(=O)COC(=O)c1ccc2ncsc2c1 (centres undefined) | 19.9% | 111%
56 | Cc1sc2ncnc(NCC(C)(C)N3CCOCC3)c2c1C | 20.2% | 126%
57 | CC(Sc1nc2ccccc2[nH]1)C(=O)NC1CCCCC1C (centres undefined) | 25.7% (inactive) | 141%
58 | COc1ccc(C2=Nc3cc(C)ccc3OC2)cc1 | 26.7% (inactive) | 140%
59 | CCN(CC)CCNC(=O)CCCNC(=O)Cn1cnc2sc(C)c(C)c2c1=O | 30.9% (inactive) | 196%
60 | Cc1cc(C)n(C(=O)c2sc3cc(F)ccc3c2Cl)n1 | 24.5% | 90.2%
61 | O=C(NCc1cccnc1)C(=O)NCC(c1ccco1)N1CCN(c2ccccc2)CC1 (centres undefined) | 26.8% (inactive) | 149%
62 | CCOc1ccc(-c2nc(N)ncc2-c2ccccc2)c(O)c1 | 20.9% | 126%
63 | c1ccc(COc2ccc(OCCN3CCCCC3)cc2)cc1 | 20.7% | 133%
64 | COc1ccc(Nc2ccccc2N)cc1 | 32.7% (inactive) | 138%
65 | CCCNC(=O)c1nc2ncc(Br)cn2n1 | 25.8% (inactive) | 154%
66 | Cc1ccc(S(=O)(=O)N2CCN(C(=O)CNC(=O)c3ccc(Cl)cc3)CC2)cc1 | 29.6% (inactive) | 165%
67 | CN(CC(=O)Nc1cc(S(=O)(=O)N2CCCC2)ccc1Cl)Cc1ccc2c(c1)OCO2 | 20.9% | 123%
